Assay results reported in patent US20190231751A1, “TREATMENT OF FIBROTIC DISORDERS WITH JUN N-TERMINAL KINASE INHIBITORS” (Imago Pharmaceuticals, Inc., priority 2016, published 2019).

What was measured:
Format in all cases: biochemical
[1] = biological target: JNK3 (Homo sapiens, UniProt P53779); test: In vitro JNK3 inhibition (Table 1)
Method: (§1) In vitro assays for the determination of JNK activities are known in the art and exemplary assay formats are described herein.
(§2) IC50 values in Table 1 were determined using the procedures as described in U.S. Pat. No. 8,450,353.

[2] = biological target: JNK2 (Homo sapiens, UniProt P45984); test: In vitro JNK2 inhibition (Table 1)
Sequence of JNK2 (P45984 whole entry, species assumed): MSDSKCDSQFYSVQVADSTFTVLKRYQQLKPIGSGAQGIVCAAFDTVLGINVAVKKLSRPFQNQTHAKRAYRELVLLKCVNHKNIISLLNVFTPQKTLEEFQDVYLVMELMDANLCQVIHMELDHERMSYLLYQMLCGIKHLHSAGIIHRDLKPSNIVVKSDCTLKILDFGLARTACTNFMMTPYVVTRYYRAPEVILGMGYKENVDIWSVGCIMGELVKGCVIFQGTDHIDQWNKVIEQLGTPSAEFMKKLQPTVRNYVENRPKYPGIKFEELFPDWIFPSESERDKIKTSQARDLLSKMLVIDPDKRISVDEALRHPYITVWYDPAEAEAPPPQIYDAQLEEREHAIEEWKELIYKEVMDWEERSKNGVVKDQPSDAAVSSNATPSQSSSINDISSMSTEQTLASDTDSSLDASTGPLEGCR
Method: as §1, §2

[3] = biological target: JNK1 (Homo sapiens, UniProt P45983); test: In vitro JNK1 inhibition (Table 1)
Sequence of JNK1 (P45983 whole entry, species assumed): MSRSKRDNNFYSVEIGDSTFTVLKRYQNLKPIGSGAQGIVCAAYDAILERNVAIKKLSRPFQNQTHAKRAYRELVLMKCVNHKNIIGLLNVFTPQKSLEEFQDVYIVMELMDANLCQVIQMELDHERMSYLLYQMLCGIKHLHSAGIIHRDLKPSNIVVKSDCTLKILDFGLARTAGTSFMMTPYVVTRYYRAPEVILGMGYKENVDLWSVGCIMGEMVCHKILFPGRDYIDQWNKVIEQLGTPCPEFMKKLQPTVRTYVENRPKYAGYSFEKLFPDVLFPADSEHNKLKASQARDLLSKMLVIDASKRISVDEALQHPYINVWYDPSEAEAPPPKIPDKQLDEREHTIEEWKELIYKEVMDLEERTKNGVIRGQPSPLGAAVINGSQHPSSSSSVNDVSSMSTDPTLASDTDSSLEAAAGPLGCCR
Method: as §1, §2

Measured: IC50

Sequence of JNK3 (P53779 whole entry, species assumed): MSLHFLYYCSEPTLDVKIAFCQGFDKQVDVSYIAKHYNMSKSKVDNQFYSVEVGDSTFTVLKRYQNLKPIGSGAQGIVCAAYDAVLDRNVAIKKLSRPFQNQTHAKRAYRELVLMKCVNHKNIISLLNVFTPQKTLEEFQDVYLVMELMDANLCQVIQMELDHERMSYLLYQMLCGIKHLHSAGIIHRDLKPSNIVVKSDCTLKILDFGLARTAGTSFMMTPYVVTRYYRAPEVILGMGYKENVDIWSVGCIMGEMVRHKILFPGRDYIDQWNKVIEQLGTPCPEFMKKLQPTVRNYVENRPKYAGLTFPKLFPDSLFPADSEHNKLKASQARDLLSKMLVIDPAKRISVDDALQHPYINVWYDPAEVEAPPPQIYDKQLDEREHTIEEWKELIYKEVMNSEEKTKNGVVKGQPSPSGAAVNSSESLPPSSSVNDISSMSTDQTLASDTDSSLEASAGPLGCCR

N#Cc1csc(NC(=O)Cn2c(=O)ccc3cc(C(F)(F)F)ccc32)c1-c1nccs1 [N-(4-cyano-3-(thiazol-2-yl)thiophen-2-yl)-2-(2-oxo-6-(trifluoromethyl)quinolin-1(2H)-yl)acetamide]
< 0.1 µM: all assays above

CN(C)CCCn1cnc(-c2c(Cl)csc2NC(=O)Cn2c(=O)ccc3cc(C(F)(F)F)ccc32)n1 [N-(4-chloro-3-(1-(3-(dimethylamino)propyl)-1H-1,2,4-triazol-3-yl)thiophen-2-yl)-2-(2-oxo-6-(trifluoromethyl)quinolin-1(2H)-yl)acetamide]
< 0.1 µM: all assays above
